Legend:
Type in all cases: cell-based
[1] = test system: p38 phosphorylation in RAW264.7 cells; assay: Western blot, phosphorylation of p38 induced by RANKL; conditions: 7.5 μM and 10 μM, RANKL 15 minutes, FIG. 11
Experimental: MAP kinases including ERK, JNK and p38 are stimulated by RANKL to be phosphorylized and further influence the down-stream key transcription factors which induce the differentiation of osteoclast-like cells such as c-Fos, NFATc1, etc. Before estimating the drug effect, 10 ng/ml RANKL are used to induce the phosphorylation of ERK, JNK and p38 at different time points. […] It is shown that KMUP-1 can reduce the activation of MAP kinases induced by RANKL. […] The proteins were collected by scraping and were centrifuged (13,000 rpm, 4° C., 30 minutes). The supernatant was stored in an eppendorf in −80° C. • c) Concentrations of the proteins were examined by Bio-Red DC Protein Assay. After knowing the concentrations, the proteins were diluted to specific concentrations by adding ddH2O. One forth volume of the diluted proteins of sample buffer was added into the diluted proteins and was put in boiled water for 5 min and then was chilled on ice for 5 minutes. After short time centrifugation, the diluted proteins could be injected into wells of a gel. The gel was run at 100 V for 10 minutes until the proteins were driven to the intersection between a loading gel and a running gel. Then, the voltage was swopped to 200 V for 40 minutes. • d) A PVDF membrane was immersed in Methanol for 2 minutes. After two washes in ddH2O, the membrane was immersed in transfer buffer for 15 minutes. […]

[2] = test system: c-Fos protein in RAW264.7 cells; assay: Western blot, expression of c-Fos induced by RANKL; conditions: 7.5 μM and 10 μM, RANKL 24 hours, FIG. 12
Experimental: The proteins were collected by scraping and were centrifuged (13,000 rpm, 4° C., 30 minutes). The supernatant was stored in an eppendorf in −80° C. • c) Concentrations of the proteins were examined by Bio-Red DC Protein Assay. After knowing the concentrations, the proteins were diluted to specific concentrations by adding ddH2O. One forth volume of the diluted proteins of sample buffer was added into the diluted proteins and was put in boiled water for 5 min and then was chilled on ice for 5 minutes. After short time centrifugation, the diluted proteins could be injected into wells of a gel. The gel was run at 100 V for 10 minutes until the proteins were driven to the intersection between a loading gel and a running gel. Then, the voltage was swopped to 200 V for 40 minutes. • d) A PVDF membrane was immersed in Methanol for 2 minutes. After two washes in ddH2O, the membrane was immersed in transfer buffer for 15 minutes. A SDS-PAGE was put on the membrane, and wet paper was flanked them. The proteins were transferred to the PVDF membrane using a semi-dry transfer at 20 V for 30 minutes. • e) The band of the PVDF membrane was trimmed and was added by suitable amount of blocking buffer (5% skim milk in washing buffer) and then was shaken for 1 hour in room temperature to block non specific bindings. Then, the band was covered by a diluted 1° antibody overnight in 4° C. […]

[3] = test system: c-Src mRNA in RAW264.7 cells; assay: RT-PCR, RANKL-induced mRNA expression of c-Src; conditions: for RANKL-induced mRNA expression level of c-Src: RAW264.7 cells, 24 hours, CTL 100%, mean ± SEM
Excerpt: The culture medium was discarded. […] [table] f) Running • A.

[4] = test system: MMP-2 enzyme activity of RAW264.7 cells; assay: Gelatin zymography, enzyme activity of MMP-2 induced by RANKL; conditions: 10 μM, RANKL 24 hours, FIG. 20
Experimental: KMUP-1 influences there major up-stream signal transduction pathways which are related to RANK/RANKL. Western blot is used to estimate the amount of matrix metalloproteinase (MMP)-2 and MMP-9 which are related to the dissolution of osteoclast-like cells, and the enzyme activity of MMP-2 and MMP-9 are estimated via Gelatin Zymography. […] After 24 hours reaction, the reaction fluid was centrifuged (13,000 rpm, 4° C., 20 minutes), and then the supernatant was stored in −80° C. • b) 10% gel preparation. 10 mg gelatin was added by 1 ml ddH2O and then was heated in water bath until the solution was clear. • c) Concentrations of the proteins were examined by Bio-Red DC Protein Assay. After knowing the concentrations, the proteins were diluted to specific concentrations by adding ddH2O. One forth volume of the diluted proteins of sample buffer was added into the diluted proteins. After shaking, the diluted proteins could be added into wells of the gel. Subsequently, 1× running buffer was added with the gel, and then the gel was run at 100 V for 10 minutes until the proteins were driven to the intersection between a loading gel and a running gel. Then, the voltage was swopped to 200 V for 60 minutes. • d) After electrophoresis, the loading gel was discarded, and the left gel was washed by TritonX-100 buffer for 30 minutes in room temperature twice. […]

Question: Which “phosphorylation of p38 induced by RANKL” value [1] does the source give for `Cn1c(=O)c2c(ncn2CCN2CCN(c3ccccc3Cl)CC2)n(C)c1=O` [KMUP-1, 7-[2-[4-(2-Chlorophenyl)piperazin-1-yl]ethyl] theophylline] here?
Answer: can efficiently inhibit the phosphorylation of ERK, JNK and p38 induced by RANKL

Question: And the “expression of c-Fos induced by RANKL” value [2]?
Answer: can efficiently inhibit it

Question: What about the “effect on mRNA expression of c-Src induced by RANKL (in words)” value ([3]; 10 ng/ml RANKL, summary of Table 1) of the same molecule?
Answer: not obviously inhibits

Question: And the “RANKL-induced mRNA expression level of c-Src” value ([3]; RANKL 10 ng/ml + KMUP-1 1 μM)?
Answer: 101.4 ± 4.5%

Question: What about the “RANKL-induced mRNA expression level of c-Src” value ([3]; RANKL 10 ng/ml + KMUP-1 2.5 μM) of the same molecule?
Answer: 103.9 ± 2.7%

Question: What about the “RANKL-induced mRNA expression level of c-Src” value ([3]; RANKL 10 ng/ml + KMUP-1 5 μM) of the same molecule?
Answer: 95.8 ± 2.8% ^

Question: And the “RANKL-induced mRNA expression level of c-Src” value ([3]; RANKL 10 ng/ml + KMUP-1 7.5 μM)?
Answer: 91.5 ± 4.5% ^

Question: What about the “RANKL-induced mRNA expression level of c-Src” value ([3]; RANKL 10 ng/ml + KMUP-1 10 μM) of the same molecule?
Answer: 98.6 ± 6.2% ^

Question: What about the “enzyme activity of MMP-2 induced by RANKL” value [4] of the same molecule?
Answer: can reduce the enzyme activity of MMP-2 and MMP-9

From patent US8507506B2, “Theophylline derivative inhibits osteoporosis” (Kaohsiung Medical University, priority 2011, dated 2013)
